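Briefly, cells in 96-well plates were exposed to five compound concentrations for 48 h, and endpoints were estimated by linear interpolation. Abbreviation: GI50, concentration required for 50% inhibition of growth. The concentration for full growth arrest is given as TGI.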 Bounds are passed on as bounds.

Drawing on PubChem BioAssay (NCI), this text covers TGI and GI50 for 13 compounds.

What all share (experiment): DTP human tumour cell line panel, 48 h
Test [1] relates to CAKI-1 renal.
Test [2] deals with DLD-1 colon.
Test [3] concerns HCT-116 colon.
Test [4] deals with LOX IMVI melanoma.
The subject of test [5] is M19-MEL melanoma.
Test [6] has as its system NCI-H226 lung.
Test [7] deals with NCI/ADR-RES ovarian.
The subject of test [8] is RXF 393 renal.
For test [9], the system named is SF-539 CNS.
The test system of test [10] is SK-MEL-5 melanoma.
Test [11] relates to SW-620 colon.
The subject of test [12] is M14 melanoma.

In general, TGI refers to the concentration giving total growth inhibition. The low end stands for more potent growth arrest, the high end for less potent growth arrest. On to `O=C1CNC(=O)N1`, for which the TGI in [1], in test [2], in test [3], in test [4], in test [5] and in test [6] was greater than 1120 µM in each case. Besides, the TGI in test [7], in test [8], in [9], in test [10] and in test [11] was greater than 1120 µM throughout.

Consider `COc1cc(CN(C)N2C(=O)c3cccc4cc([N+](=O)[O-])cc(c34)C2=O)cc(OC)c1OC`, for which the concentration for total growth inhibition (TGI) in test [1] was greater than 100 µM; in [12] it was greater than 100 µM; in test [6], greater than 100 µM; in test [7], greater than 100 µM; in test [8], 90.3 µM; in test [10], greater than 100 µM.

On to `CC1(C)CCCC2(C)[C@@H]1CC[C@]13C[C@](C)(CC[C@@H]21)[C@@H]3CO` (stereo partly specified), for which the concentration for total growth inhibition (TGI) in test [1], in test [2], in test [3], in test [4], in test [12] and in test [5] was greater than 100 µM in each case. The TGI in [6], in [8], in [9], in [10] and in [11] was greater than 100 µM in each case.

With `Cc1ccc(NCCO)cc1`, the TGI in [1], in test [2], in [3], in test [4], in [12] and in [6] was greater than 100 µM in each case. For the same compound, the total growth inhibition concentration (TGI) in test [9], in test [10] and in test [11] was greater than 100 µM each time.

Consider `O=C(NC/C=C/CO)c1ccccc1`, for which the TGI in [2], in test [3], in [4], in [5], in test [6] and in test [7] was greater than 100 µM in each case. The TGI in [8], in test [9], in test [10] and in [11] was greater than 100 µM throughout.

In general, GI50 refers to the concentration that inhibits growth by half. `Fc1cc(C2=Nn3c(nnc3-c3cc(F)c(Cl)cc3Cl)SC2)c(Cl)cc1Cl`: the GI50 in test [1] was 20.6 µM; in test [4], 21.6 µM; in test [6] it was 14.9 µM; in [7], 27.4 µM; in test [8] it was 23.2 µM; in test [9], 18.9 µM. Moreover, the GI50 in test [10] was 13.4 µM; in test [11], 22.6 µM. The total growth inhibition concentration (TGI) in test [1] is 60.7 µM; in test [4], 45.6 µM; in test [6] it was 36 µM; in [7], greater than 100 µM; in test [8], 62.5 µM; in test [9], 38 µM. For the same compound, the total growth inhibition concentration (TGI) in test [10] amounted to 30.3 µM; in test [11], 47.2 µM.

Regarding `COc1ccc(-c2nnc3c4ccccc4sn23)cc1`, the TGI in test [3] was greater than 100 µM; in [4], greater than 100 µM; in [12] it was greater than 100 µM; in test [5], greater than 100 µM; in test [8] it was 82.5 µM; in test [9] it was greater than 100 µM. Moreover, the TGI in test [10] and in test [11] was greater than 100 µM in each case.

Regarding `O=c1n(Cc2ccccc2)c2ccccc2n1CC1CS1` (stereo unspecified), the TGI in test [1], in test [3], in test [4], in test [12], in test [5] and in test [6] was greater than 100 µM throughout. Moreover, the total growth inhibition concentration (TGI) in [9] and in [11] was greater than 100 µM each time.

Consider `Cc1cc(C)c(S(=O)(=O)N(CCCCCCN)OCCCON(CCCCCCN)S(=O)(=O)c2c(C)cc(C)cc2C)c(C)c1`, for which the concentration for total growth inhibition (TGI) was 3.7 µM in test [1]; 3.08 µM in [3]; 3.19 µM in [4]; 3.03 µM in test [12]; 34.6 µM in test [7]; 3.18 µM in [8]. The total growth inhibition concentration (TGI) in test [9] amounted to 3.98 µM.

`COc1ccc2c(c1)C(=O)/C(=C/c1ccccc1)C2`: the TGI in [1] is 60.1 µM; in [12], greater than 100 µM; in test [6] it was greater than 100 µM; in test [7] it was 88.2 µM; in test [8] it was greater than 100 µM; in test [10], greater than 100 µM.

Turning to `CC12CCC3C(CCC4(O)C=CCCC34C=O)C1(O)CC(O)C2c1ccc(=O)oc1` (stereo unspecified), the TGI came to 0.0894 µM in test [1]; 0.098 µM in [2]; 0.22 µM in test [3]; 0.216 µM in test [4]; 0.264 µM in test [5]; 0.369 µM in test [6]. The TGI came to 0.282 µM in [7]; 0.0693 µM in test [8]; 0.0735 µM in test [9]; 0.0887 µM in [10]; 0.222 µM in [11].

Regarding `CCNc1nc2c(=O)n(C)c(=O)n(C)c2s1`, the total growth inhibition concentration (TGI) in test [2], in [3], in test [4], in test [12], in test [5] and in [6] was greater than 100 µM each time. Besides, the concentration for total growth inhibition (TGI) in test [8], in test [9] and in [11] was greater than 100 µM each time.

Regarding `ClCc1nnc2n1-c1ccc(Cl)cc1SC2`, the TGI in test [3] came out at 12.7 µM; in test [4], 2.82 µM; in [5], 10.4 µM; in test [6] it was 5.64 µM; in test [7], 4.76 µM; in test [8], 9.79 µM. Besides, the results for the TGI in test [9], in test [10] and in [11] were 13.2 µM, 9.49 µM and 24 µM, respectively.
